The structures appear in SMILES notation.

A short description of series [1]: Lipophilicity, log D at pH 7.4. The note with it: buffer.
The target of series [2] is T1, Beta-secretase 1 (Homo sapiens, UniProt P56817). In words: Inhibition of BACE1.
Series [3] in a line: Ratio of steady sate drug level in brain to blood of wild type mouse expressing mdr1a/b. Format: ADME, tissue-based.
Series [4] is described as follows: Ratio of steady sate drug level in brain to blood of mdr1a/b knockout mouse. It counts as ADME, tissue-based.
Series [5] can be described thus: Blood clearance in mdr1a/b knockout mouse by HPLC analysis. Format: ADME, organism-based.
Series [6] concerns Brain. Kind of series: Steady sate drug level in brain of mdr1a/b knockout mouse by HPLC analysis. The note with it: in vivo, read-out: Css. It counts as ADME, tissue-based.
For series [7], the system named is Blood. In words: Steady sate drug level in blood of mdr1a/b knockout mouse by HPLC analysis. The note with it: read-out: Css. It counts as ADME, tissue-based.
A short description of series [8]: Bioavailability in rat. The note with it: in vivo. It counts as ADME, organism-based.
Series [9] relates to Brain. In words: Steady sate drug level in brain of wild type mouse expressing mdr1a/b by HPLC analysis. Format: ADME, tissue-based. The note with it: in vivo.
Series [10] has as its system Blood. Kind of series: Steady sate drug level in blood of wild type mouse expressing mdr1a/b by HPLC analysis. Format: ADME, tissue-based.
The nature of series [11]: Blood clearance in wild type mouse expressing mdr1a/b by HPLC analysis. It counts as ADME, organism-based.
The target in another series is Cathepsin D (Homo sapiens, UniProt P07339). In words: Inhibition of cathepsin-D.
The next series has as its target T2, Beta-secretase 2 (Homo sapiens, UniProt Q9Y5Z0).
T2 sequence (Q9Y5Z0 whole entry): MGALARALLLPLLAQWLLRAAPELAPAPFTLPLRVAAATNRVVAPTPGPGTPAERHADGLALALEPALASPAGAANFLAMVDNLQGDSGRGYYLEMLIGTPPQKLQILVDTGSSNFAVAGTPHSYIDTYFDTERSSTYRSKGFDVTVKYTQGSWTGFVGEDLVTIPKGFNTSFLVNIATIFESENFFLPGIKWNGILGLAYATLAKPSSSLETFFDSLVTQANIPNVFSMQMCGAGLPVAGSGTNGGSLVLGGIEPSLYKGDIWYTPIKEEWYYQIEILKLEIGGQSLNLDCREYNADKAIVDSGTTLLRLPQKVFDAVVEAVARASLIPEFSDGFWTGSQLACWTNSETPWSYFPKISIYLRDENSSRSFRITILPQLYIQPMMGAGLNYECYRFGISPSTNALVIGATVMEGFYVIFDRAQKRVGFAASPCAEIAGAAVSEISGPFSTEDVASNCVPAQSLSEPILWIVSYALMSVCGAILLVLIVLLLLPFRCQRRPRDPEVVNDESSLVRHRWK
In words: Inhibition of BACE2.

Series [12] has as its target T1, Beta-secretase 1. Kind of series: Inhibition of BACE1 in human SHSY5Y cells expressing wild type APP assessed as inhibition of intracellular amyloid beta-40 secretion. Format: cell-based, SH-SY5Y.
Series [13] is described as follows: Volume of distribution in dog at 1 mg/kg/hr, iv. It counts as ADME, organism-based, Canis lupus familiaris. More on the design: route intravenous. The note with it: in vivo.
Series [14] in a line: Half life in rat at 1 mg/kg/hr, iv. More on the design: route intravenous. It counts as ADME, organism-based. The note with it: in vivo.
Series [15] in a line: Volume of distribution in rat at 1 mg/kg/hr, iv. It counts as ADME, organism-based. More on the design: route intravenous. The note with it: in vivo.
Series [16] in a line: Cmax in dog at 10 mg/kg. The note with it: in vivo. It counts as ADME, organism-based, Canis lupus familiaris. The arrangement: dose 10 mg/kg.
Series [17] can be described thus: Blood clearance in dog at 1 mg/kg/hr, iv. The arrangement: route intravenous. Format: ADME, organism-based, Canis lupus familiaris.
Series [18] in a line: Half life in dog at 1 mg/kg/hr, iv. The note with it: in vivo. Format: ADME, organism-based, Canis lupus familiaris. More on the design: route intravenous.
The nature of series [19]: Blood clearance in rat at 1 mg/kg/hr, iv. It counts as ADME, organism-based. The arrangement: route intravenous.
A short description of series [20]: Bioavailability in dog. It counts as ADME, organism-based, Canis lupus familiaris. The note with it: in vivo.
The nature of series [21]: Cmax in rat at 10 mg/kg. It counts as ADME, organism-based. The arrangement: dose 10 mg/kg. The note with it: in vivo.

Cathepsin D, sequence (P07339 65-162 limits assumed): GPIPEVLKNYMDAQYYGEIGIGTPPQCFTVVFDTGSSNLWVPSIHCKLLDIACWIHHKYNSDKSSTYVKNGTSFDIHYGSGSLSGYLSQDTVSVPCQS
Cathepsin D, sequence (P07339 169-412 limits assumed): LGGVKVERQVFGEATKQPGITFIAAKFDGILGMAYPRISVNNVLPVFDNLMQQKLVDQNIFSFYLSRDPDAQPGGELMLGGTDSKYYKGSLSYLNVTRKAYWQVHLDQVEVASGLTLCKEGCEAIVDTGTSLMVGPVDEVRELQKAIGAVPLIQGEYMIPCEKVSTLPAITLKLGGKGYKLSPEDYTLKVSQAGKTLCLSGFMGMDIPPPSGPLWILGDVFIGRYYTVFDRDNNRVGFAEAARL
T1 sequence (P56817 whole entry): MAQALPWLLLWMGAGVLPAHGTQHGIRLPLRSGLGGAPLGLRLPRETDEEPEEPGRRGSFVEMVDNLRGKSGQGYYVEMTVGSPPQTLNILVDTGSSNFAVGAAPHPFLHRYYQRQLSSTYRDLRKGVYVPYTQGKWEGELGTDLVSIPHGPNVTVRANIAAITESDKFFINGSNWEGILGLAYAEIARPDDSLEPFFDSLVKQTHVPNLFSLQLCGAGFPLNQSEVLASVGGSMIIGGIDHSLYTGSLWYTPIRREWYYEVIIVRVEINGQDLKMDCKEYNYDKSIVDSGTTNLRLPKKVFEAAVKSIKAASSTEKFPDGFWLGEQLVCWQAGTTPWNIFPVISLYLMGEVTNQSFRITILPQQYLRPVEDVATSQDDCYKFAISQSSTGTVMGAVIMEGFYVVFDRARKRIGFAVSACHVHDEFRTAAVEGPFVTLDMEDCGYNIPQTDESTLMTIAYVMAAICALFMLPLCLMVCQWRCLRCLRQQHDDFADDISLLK

Regarding `CCc1cn2c3c(cc(C(=O)N[C@@H](Cc4ccccc4)[C@H](O)CNC4CC4)cc13)N(C)S(=O)(=O)CC2`, the logD (commonly lipophilicity at a set pH, counting ionised and neutral species) in series [1] came out at 2.17. On Beta-secretase 1 [2], half-maximal inhibition (IC50) was put at 11 nM. For the same compound, the Kp (commonly the ratio of the level in a tissue or fluid to that in plasma or blood) in series [3] was 0.13; in [4], 2.41. Also, the values for the clearance in [5] and in [11] were 62 mL/min/kg and 72 mL/min/kg, respectively. The results for the concentration with Brain [6] and in the series with Blood [7] were 989 nM and 397 nM, respectively. In addition, in [8], the bioavailability (usually the share of a dose that reaches the circulation, judged against a reference dose that is usually intravenous) came to 17%. Also, the Css in the series with Brain [9] came out at 61 nM; in the series with Blood [10] it was 490 nM.

As to `CCNC[C@@H](O)[C@H](Cc1ccccc1)NC(=O)c1cc2c3c(c1)c(CC)cn3CCS(=O)(=O)N2C`, the IC50 (in general, the concentration that gives 50% inhibition) was found to be 48 nM at Beta-secretase 1 [2], 36300 nM at Cathepsin D, 1140 nM against Beta-secretase 2 and 262 nM on Beta-secretase 1 [12].

Consider `CCn1cc2c3c(cc(C(=O)N[C@@H](Cc4ccccc4)[C@H](O)CNCC(F)F)cc31)N(C)S(=O)(=O)CC2`, for which the IC50 at Beta-secretase 1 [2] is 20 nM; at Beta-secretase 1 [12] it was 51 nM.

For the compound `CCn1cc2c3c(cc(C(=O)N[C@@H](Cc4ccccc4)[C@H](O)CNCC(F)(F)F)cc31)N(C)S(=O)(=O)CC2`, the half-inhibitory concentration (IC50) on Beta-secretase 1 [2] amounted to 79 nM; on Beta-secretase 1 [12], 2110 nM.

Consider `CCNC[C@@H](O)[C@H](Cc1ccccc1)NC(=O)c1cc2c3c(cn(CC)c3c1)CCS(=O)(=O)N2C`, for which, in [1], the logD was found to be 0.07. Also, the IC50 against Beta-secretase 1 [2] was 23 nM; against Cathepsin D, 19500 nM; against Beta-secretase 2 it was 2170 nM; at Beta-secretase 1 [12], 73 nM.

Compound `CCn1cc2c3c(cc(C(=O)N[C@@H](Cc4ccccc4)[C@H](O)CNC4CC4)cc31)N(C)S(=O)(=O)CC2` yielded a logD in series [1] of 1.79. In addition, the 50% inhibitory concentration (IC50) against Cathepsin D stood at 6790 nM; against Beta-secretase 2 it was 370 nM.

For `CCc1cn2c3c(cc(C(=O)N[C@@H](Cc4ccccc4)[C@H](O)CNCc4cccc(C(F)(F)F)c4)cc13)OS(=O)(=O)CC2`, the IC50 against Beta-secretase 1 [2] is 8 nM; against Cathepsin D it was 2160 nM; against Beta-secretase 2, 260 nM.

In the case of `C#CCNC[C@@H](O)[C@H](Cc1ccccc1)NC(=O)c1cc2c3c(cn(CC)c3c1)CCS(=O)(=O)N2C`, the IC50 on Beta-secretase 1 [2] stood at 11 nM; on Cathepsin D it was 34600 nM; against Beta-secretase 2 it was 1490 nM; at Beta-secretase 1 [12], 26 nM.

For the compound `CCc1cn2c3c(cc(C(=O)N[C@@H](Cc4ccccc4)[C@H](O)CNC4CC4)cc13)OS(=O)(=O)CC2`, the IC50 at Beta-secretase 1 [2] was 250 nM; against Cathepsin D it was 2970 nM; against Beta-secretase 2, 1150 nM.

For the compound `CC[C@@H](C)NC[C@@H](O)[C@H](Cc1ccccc1)NC(=O)c1cc2c3c(cn(CC)c3c1)CCS(=O)(=O)N2C`, the IC50 on Beta-secretase 1 [2] was 10 nM; against Cathepsin D, 1190 nM; against Beta-secretase 2, 420 nM; at Beta-secretase 1 [12], 64 nM.

In [1], `CCc1cn2c3c(cc(C(=O)N[C@@H](Cc4ccccc4)[C@H](O)CN[C@H](C)CC)cc13)N(C)S(=O)(=O)CC2` displayed a logD of 1.52. Further, the IC50 against Beta-secretase 1 [2] came out at 22 nM; against Cathepsin D, 5430 nM; against Beta-secretase 2 it was 430 nM; at Beta-secretase 1 [12], 144 nM.

For the compound `C#CCNC[C@@H](O)[C@H](Cc1ccccc1)NC(=O)c1cc2c3c(c1)c(CC)cn3CCS(=O)(=O)O2`, the 50% inhibitory concentration (IC50) at Beta-secretase 1 [2] came out at 360 nM; against Cathepsin D, 15100 nM; at Beta-secretase 2 it was 3200 nM.

Consider `CCCNC[C@@H](O)[C@H](Cc1ccccc1)NC(=O)c1cc2c3c(cn(CC)c3c1)CCS(=O)(=O)N2C`, for which the values for the IC50 against Beta-secretase 1 [2] and at Beta-secretase 1 [12] were 8 nM and 29 nM, respectively.

Take `CCn1cc2c3c(cc(C(=O)N[C@@H](Cc4ccccc4)C(=O)CNC4CCOCC4)cc31)N(C)S(=O)(=O)CC2`: the IC50 at Beta-secretase 1 [12] is 48 nM.

For the compound `CCn1cc2c3c(cc(C(=O)N[C@@H](Cc4ccccc4)[C@H](O)CNC4CCOCC4)cc31)N(C)S(=O)(=O)CC2`, the logD in series [1] was 0.9. Besides, the IC50 stood at 5 nM against Beta-secretase 1 [2], 2110 nM against Cathepsin D, 590 nM against Beta-secretase 2 and 27 nM on Beta-secretase 1 [12].

`CCc1cn2c3c(cc(C(=O)N[C@@H](Cc4ccccc4)[C@H](O)CNCC4CCOCC4)cc13)OS(=O)(=O)CC2`: the half-maximal inhibitory concentration (IC50) against Beta-secretase 1 [2] turned out to be 86 nM; on Cathepsin D, 130 nM; at Beta-secretase 2, 450 nM.

In the case of `CCc1cn2c3c(cc(C(=O)N[C@@H](Cc4ccccc4)[C@H](O)CNCCC(F)(F)F)cc13)N(C)S(=O)(=O)CC2`, in series [1], the pH-dependent lipophilicity (logD) turned out to be 2.8. Also, the IC50 against Beta-secretase 1 [2] was found to be 7 nM; against Cathepsin D, 890 nM; on Beta-secretase 2 it was 28 nM; at Beta-secretase 1 [12] it was 8 nM.

As to `CCn1cc2c3c(cc(C(=O)N[C@@H](Cc4ccccc4)[C@H](O)CNc4ccccc4)cc31)N(C)S(=O)(=O)CC2`, the IC50 against Beta-secretase 1 [2] is 5 nM; on Beta-secretase 1 [12], 739 nM.

As for `CCc1cn2c3c(cc(C(=O)N[C@@H](Cc4ccccc4)[C@H](O)CNC4CCOCC4)cc13)N(C)S(=O)(=O)CC2`, in series [1], the logD came to 1.31. Also, the concentration for half-maximal inhibition (IC50) on Beta-secretase 1 [2] came out at 9 nM; at Cathepsin D, 60 nM; at Beta-secretase 2, 210 nM; at Beta-secretase 1 [12], 90 nM.

For `C#CCNC[C@@H](O)[C@H](Cc1ccccc1)NC(=O)c1cc2c3c(c1)c(CC)cn3CCS(=O)(=O)N2C`, the IC50 against Beta-secretase 1 [2] turned out to be 73 nM; against Cathepsin D, 75500 nM; against Beta-secretase 2, 3100 nM; on Beta-secretase 1 [12] it was 118 nM.

With `CCn1cc2c3c(cc(C(=O)N[C@@H](Cc4ccccc4)[C@H](O)CNCCF)cc31)N(C)S(=O)(=O)CC2`, the IC50 on Beta-secretase 1 [2] came out at 40 nM; on Beta-secretase 1 [12], 245 nM.

Take `CCc1cn2c3c(cc(C(=O)N[C@@H](Cc4ccccc4)[C@H](O)CNCCF)cc13)N(C)S(=O)(=O)CC2`: the figures for the IC50 against Beta-secretase 1 [2] and at Beta-secretase 1 [12] were 50 nM and 209 nM, respectively.

Turning to `CCn1cc2c3c(cc(C(=O)N[C@@H](Cc4ccccc4)[C@H](O)CNCC(F)(F)C(F)(F)F)cc31)N(C)S(=O)(=O)CC2`, the IC50 was 32 nM on Beta-secretase 1 [2] and 4430 nM on Beta-secretase 1 [12].

`CCn1cc2c3c(cc(C(=O)N[C@@H](Cc4ccccc4)[C@H](O)CNCCC(F)(F)F)cc31)N(C)S(=O)(=O)CC2`: the results for the Vd in series [13] and in [15] were 4.8 L/kg and 11 L/kg, respectively. This compound also returned a logD in [1] of 2.59. The values for the Kp in [3] and in series [4] were 0.1 and 0.99, respectively. The half-life (as a rule, the time in which the quantity being followed falls by half) was 3.3 h in series [14] and 6.8 h in [18]. Also, the clearance – broadly, the rate of elimination divided by the concentration – in series [5] worked out at 94 mL/min/kg; in series [17], 14 mL/min/kg; in series [19], 57 mL/min/kg; in series [11], 85 mL/min/kg. Moreover, the values for the Cmax in series [16] and in series [21] were 3590 nM and 88 nM, respectively. Also, the half-inhibitory concentration (IC50) is 570 nM against Cathepsin D and 75 nM at Beta-secretase 2. The concentration with Brain [6] was 335 nM; in the series on Blood [7], 339 nM. The bioavailability in series [20] turned out to be 52%; in [8], 13%. In addition, the Css came out at 40 nM in the series with Brain [9] and 381 nM in the series with Blood [10].

Source of the values: ChEMBL document CHEMBL1158411, “Second generation of BACE-1 inhibitors part 3: Towards non hydroxyethylamine transition state mimetics” (Bioorg Med Chem Lett, 2009).
